# Entries after “also recorded” stand apart in the source; their conditions may differ.
# How the values were obtained:
# HP (Ph− ALL PD-LTC) = assay: XTT cell viability, PD-LTC HP; settings: increasing concentration up to 10 μM
# Method: (§6) Each tested compound was dissolved in a suitable vehicle and cells were exposed to successive solutions containing an increasing concentration of each test compound, as well as a control sample containing no test compound. A range of 5 (or 10) concentrations were tested in triplicates starting from 1 μM. The potency of each test compound was assessed by cell viability using an XTT assay [53, 54]. The ratio of cell viability (CV %) was determined by calculating the average of each triplicate, normalizing to the average in case to the average of the control sample.
# (§7) Standard deviation (STD) was calculated for each triplicate and the curve logarithmic equation was calculated for each curve.
# (§8) Each compound was assayed against a panel of Patient-Derived Long-Term cultures (PD-LTCs) including: • 8. […] PH: primary Patient-Derived Long-Term Cultures (PD-LTCs) from Ph^+ ALL patients Ph+ ALL (p185-BCR-ABL) that are fully responsive to TKIs ˜30% of adult ALL patients harbor the Ph chromosome, that represent a high-risk group of ALL. • 10. […] HP: PD-LTCs derived from Ph− ALL patient (not harboring the Ph chromosome). HP was used as negative control. • 12. VM: derived from a Ph+ ALL patient harboring p210-BCR-ABL. • 13.
# (§9) The dose-response curves for single agent treatments were generated in Prism 9 (GraphPad). Curve fitting was performed by nonlinear regression using the log(inhibitor) vs. normalized response—Variable slope model.
# [1] = test system: Ba/F3 cells expressing p185-BCR-ABL; assay: XTT cell viability / proliferation, Ba/F3 expressing p185-BCR-ABL; type: cell-based, murine; settings: p185-BCR-ABL-Ba/F3, increasing concentration up to 10 μM
# Method: (§1) • 1. Ba/F3 cells were obtained from the German Collection of Microorganisms and Cell Cultures (DSMZ, Braunschweig, Germany) and maintained in RPMI 1640 medium supplemented with 10% fetal calf serum (Invitrogen) containing 10 ng/ml of interleukin-3 (Cell Concepts, Umkirch, Germany). Ecotropic Phoenix cells and Rat-1 cells were cultured in Dulbecco's modified Eagle's medium supplemented with 10% fetal calf serum. GNF-2 (Sigma-Adrich, Steinheim, Germany) was dissolved in dimethyl sulfoxide and added at a final concentration of […]. Cell growth was assessed by dye exclusion using Trypan blue. Proliferation was assessed using the XTT proliferation kit (Roche, Mannheim, Germany), according to the manufacturer's instructions. • 2. Ba/F3: IL-3 dependent lymphatic murine pro B cell line. Ba/F3 cells expressing either p185-BCR-ABL1 (p185-BCR-ABL-Ba/F3) or p210-BCR-ABL (p210-BCR-ABL-Ba/F3). p185-BCR-ABL1 (activated kinases substitute for the IL-3 signaling and therefore render the cells IL3 independent. Ba/F3 cells expressing either p185-BCR-ABL (p185-Ba/F3) or p210-BCR-ABL (p210-Ba/F3). Ba/F3 cells obtained from the German Collection of Microorganisms and Cell Cultures (DSMZ, Braunschweig, Germany). • 3. Mutant transduced Ba/F3 cells (T315I-p185-BCR-ABL1 or T315I-p210-BCR-ABL1): Ba/F3 cells expressing either the mutated forms T315I-p185-BCR-ABL1 or T315I-p210-BCR-ABL1. • 4. WT-Sup-B15: A Ph+ ALL cell line harboring the p185-BCR-ABL. Sup-B15: established from the bone marrow of a child with acute lymphoblastic leukemia (B cell precursor ALL) in second relapse in 1984; described in the literature to carry the ALL-variant (m-BCR) of the BCR-ABL1 fusion gene (e1-a2) correct, because it results in the p185-BCR-ABL version. • 5. […] V617FJAK2 HEL: (Human erythroleukemia) is a growth factor independent erythroleukemic cell line established from the bone marrow of a patient with relapsed Hodgkin disease after autologous bone marrow transplantation (Martin P & Papayannopoulou T: Science 1982; 216:1233-1235). HEL cells display a block in differentiation at the level of common erythroid-megakaryocytic progenitor and have been commonly used as a model to study erythroid and megakaryocytic differentiation. • 7. Jurkat: an immortalized human T lymphocyte first derived from the peripheral blood of a child suffering from T cell leukemia. Jurkat cells are used to study acute T cell leukemia, T cell signaling, and the expression of various chemokine receptors susceptible to viral entry, particularly HIV.
# (§2) FIGS. 1A and 1B: Effects of Compound 16 on Ba/F3 cells expressing either p185-BCR-ABL or T315I-p185-BCR-ABL. Cells were exposed to increasing concentration of Compound 16 [empty vehicle (0.0 μM+IL3), 2.5, 5.0 and 10.0 μM]. […] Cell viability (CV) was assessed using the XTT method as described in the experimental part. The means±SD of triplicates from one representative experiment out of three performed are given.
# (§3) FIGS. 7A-C: Effects of Compound 16 on of Ba/F3 cells expressing WT-p185-BCR-ABL (FIG. 7A) and the mutant gatekeeper T315I-p185-BCR-ABL (FIG. 7B) by Compound 16. Cells were exposed to increasing concentrations of Compound 16.
# [2] = test system: Ba/F3 cells expressing T315I-p185-BCR-ABL; assay: XTT cell viability / proliferation, Ba/F3 expressing T315I-p185-BCR-ABL; type: cell-based, murine; settings: for antiproliferative response (in words): T315I-p185-BCR-ABL-Ba/F3, increasing concentration up to 10 μM
# Method: as §1, §2, §3
# [3] = test system: PINCO transfected Ba/F3 cells; assay: XTT cell viability, Ba/F3 transduced with empty vector (PINCO); type: cell-based, murine; settings: increasing concentration up to 10 μM
# Method: (§4) • 1. Ba/F3 cells were obtained from the German Collection of Microorganisms and Cell Cultures (DSMZ, Braunschweig, Germany) and maintained in RPMI 1640 medium supplemented with 10% fetal calf serum (Invitrogen) containing 10 ng/ml of interleukin-3 (Cell Concepts, Umkirch, Germany). Ecotropic Phoenix cells and Rat-1 cells were cultured in Dulbecco's modified Eagle's medium supplemented with 10% fetal calf serum. GNF-2 (Sigma-Adrich, Steinheim, Germany) was dissolved in dimethyl sulfoxide and added at a final concentration of […]. Cell growth was assessed by dye exclusion using Trypan blue. Proliferation was assessed using the XTT proliferation kit (Roche, Mannheim, Germany), according to the manufacturer's instructions. • 2. Ba/F3: IL-3 dependent lymphatic murine pro B cell line. Ba/F3 cells expressing either p185-BCR-ABL1 (p185-BCR-ABL-Ba/F3) or p210-BCR-ABL (p210-BCR-ABL-Ba/F3). p185-BCR-ABL1 (activated kinases substitute for the IL-3 signaling and therefore render the cells IL3 independent. Ba/F3 cells expressing either p185-BCR-ABL (p185-Ba/F3) or p210-BCR-ABL (p210-Ba/F3). Ba/F3 cells obtained from the German Collection of Microorganisms and Cell Cultures (DSMZ, Braunschweig, Germany). • 3. Mutant transduced Ba/F3 cells (T315I-p185-BCR-ABL1 or T315I-p210-BCR-ABL1): Ba/F3 cells expressing either the mutated forms T315I-p185-BCR-ABL1 or T315I-p210-BCR-ABL1. • 4. WT-Sup-B15: A Ph+ ALL cell line harboring the p185-BCR-ABL. Sup-B15: established from the bone marrow of a child with acute lymphoblastic leukemia (B cell precursor ALL) in second relapse in 1984; described in the literature to carry the ALL-variant (m-BCR) of the BCR-ABL1 fusion gene (e1-a2) correct, because it results in the p185-BCR-ABL version. • 5. […]
# FIG. 11: Antiproliferative effect of Compound 16 on PINCO transfected Ba/F3 cells. […] Proliferation status was determined by the metabolic activity of cells given by the reduction rate of XTT to formazan. […]
# Jurkat = assay: XTT cell viability, Jurkat; type: cell-based, human; settings: increasing concentration up to 10 μM
# Method: as §4
# FIG. 2: Effect of Compound 16 on leukemia cell lines (Jurkat, Sup-B15 and BV173). Cell viablility (CV) was determined following incubation of the 1 m cells/ml of each cell line with increasing concentration of the Compound 16 [empty vehicle (0.0 μM+IL3), 2.5, 5.0 and 10.0 μM]. CV was measured by the XTT method. […]
# Sup-B15 (p185-BCR-ABL) = assay: XTT cell viability, Sup-B15 (WT-Sup-B15); type: cell-based, human
# Method: as §1
# FIG. 2: Effect of Compound 16 on leukemia cell lines (Jurkat, Sup-B15 and BV173). Cell viablility (CV) was determined following incubation of the 1 m cells/ml of each cell line with increasing concentration of the Compound 16 [empty vehicle (0.0 μM+IL3), 2.5, 5.0 and 10.0 μM]. CV was measured by the XTT method. The means±SD of triplicates from one representative experiment out of three performed are given.
# RT-Sup-B15 = assay: XTT cell viability, RT-Sup-B15; type: cell-based, human; settings: RT-Sup-B15, increasing concentration up to 10 μM
# Method: (§5) • 1. Ba/F3 cells were obtained from the German Collection of Microorganisms and Cell Cultures (DSMZ, Braunschweig, Germany) and maintained in RPMI 1640 medium supplemented with 10% fetal calf serum (Invitrogen) containing 10 ng/ml of interleukin-3 (Cell Concepts, Umkirch, Germany). Ecotropic Phoenix cells and Rat-1 cells were cultured in Dulbecco's modified Eagle's medium supplemented with 10% fetal calf serum. GNF-2 (Sigma-Adrich, Steinheim, Germany) was dissolved in dimethyl sulfoxide and added at a final concentration of […]. Cell growth was assessed by dye exclusion using Trypan blue. Proliferation was assessed using the XTT proliferation kit (Roche, Mannheim, Germany), according to the manufacturer's instructions. • 2. Ba/F3: IL-3 dependent lymphatic murine pro B cell line. […]
# BV (Ph+ ALL PD-LTC) = assay: XTT cell viability, PD-LTC BV; type: cell-based, human; settings: for antiproliferative response (in words): increasing concentration 0.5-10 μM; for induction of cell proliferation at high concentration (in words): concentration >5 μM (10 μM)
# [4] = test system: KÖ (Ph+T315I-p185-BCR-ABL ALL); assay: XTT cell viability, PD-LTC KÖ; type: cell-based, human
# Ph− V617FJAK2 HEL = assay: XTT cell viability, HEL; type: cell-based, human; settings: increasing concentration up to 10 μM
# Method: as §5
# PH (Ph+ ALL PD-LTC) = assay: XTT cell viability, PD-LTC PH; settings: for antiproliferative response (in words): increasing concentration 0.5-10 μM
# Method: as §6, §7, §8, §9
# [5] = test system: SATA5, pSTAT5, JAK2 and pJAK2; assay: Western blotting of HEL cells; type: cell-based, human; settings: 500 nM
# Method: FIG. 40: Western blot analysis of HEL cells using antibodies directed against the indicated proteins. Cells were exposed to increasing concentration of Compound 34 [vehicle (0.0 nM), 50, 100.0, 500.0, 1000.0, and 5000.0 nM].
# Cells were harvested at the corresponding time intervals (0, 3, 6, 12, and 14 hours) on HELL cells. Anti-STAT5, anti-pSTAT5, anti-JAK2 and anti-pJAK2 antibodies were used.
SMILES,antiproliferative response (in words) (HP (Ph− ALL PD-LTC)),antiproliferative response (in words) [1],antiproliferative response (in words) [2],antiproliferative response (in words) (BV (Ph+ ALL PD-LTC)),antiproliferative response (in words) (PH (Ph+ ALL PD-LTC)),other results
"Cc1ccc(NC(=O)c2ccc(CN3CCN(C)CC3)cc2)cc1Nc1nccc(-c2cccnc2)n1 [Imatinib, reference compound]",irresponsiveness,–,–,–,–,–
CS(=O)(=O)N1CCN(c2cc(Nc3ccc(OC(F)(F)F)cc3)ncn2)CC1 [Compound 30],–,increased sensitivity,concentration dependent inhibition; also recorded: weakly responsive,increased sensitivity,increased sensitivity; also recorded: PH>BV,"cell viability (CV) at plateau ([2]; 4 and 10.0 μM): ~16%; antiproliferative response (in words) [3]: weakly responsive; antiproliferative response (in words) (Jurkat): irresponsive; antiproliferative response (in words) (Sup-B15 (p185-BCR-ABL); Sup-B15 / WT-Sup-B15, increasing concentration up to 10 μM): responsive; also recorded: twice as sensitive; also recorded: increased sensitivity; antiproliferative response (in words) (RT-Sup-B15): irresponsive; also recorded: weakly responsive; antiproliferative response (in words) ([4]; increasing concentration up to 10 μM): weak inhibition is noticed at concentration that ranges between 2.5-10 μM; also recorded: negligible at low concentrations (<1 μM); antiproliferative response (in words) (Ph− V617FJAK2 HEL): weakly responsive; also recorded: negligible at low concentrations (<1 μM); also recorded: weak inhibition is noticed at concentration that ranges between 2.5-10 μM"
Cc1ccc(S(=O)(=O)N2CCN(c3cc(Nc4ccc(OC(F)(F)F)cc4)ncn3)CC2)cc1 [Compound 31],negligible,negligible,negligible,significantly inhibited; also recorded: increased sensitivity; also recorded: enhanced activity,significantly inhibited; also recorded: increased sensitivity; also recorded: enhanced activity,induction of cell proliferation at high concentration (in words) (BV (Ph+ ALL PD-LTC)): induction of cell proliferation; also recorded: growth induction; induction of cell proliferation at high concentration (in words) (BV (Ph+ ALL PD-LTC); listed as −31): growth induction; antiproliferative response (in words) (Ph− V617FJAK2 HEL): negligible; induction of cell proliferation at high concentration (in words) (PH (Ph+ ALL PD-LTC); concentration >5 μM (10 μM)): induction of cell proliferation; also recorded: growth induction
O=C(c1cccc(-c2cc(Nc3ccc(OC(F)(F)F)cc3)ncn2)c1)N1CCN(c2ccc(C(F)(F)F)cn2)CC1 [Compound 34],highly resistant; also recorded: negligible; also recorded: some response at higher doses,most sensitive,least responsive; also recorded: irresponsive,more effective in inhibiting the proliferation BV than KÖ,most responsive; also recorded: twice as sensitive,"antiproliferative response (in words) [3]: intermediately responsive; also recorded: next in response; antiproliferative response (in words) (Jurkat): irresponsive; also recorded: negligible; IC50 (Sup-B15 (p185-BCR-ABL); WT-Sup-B15, Table 1): 28.6 µM; antiproliferative response (in words) (RT-Sup-B15): irresponsive; also recorded: negligible; IC50 (BV (Ph+ ALL PD-LTC); Table 1): 0.45 µM; IC50 ([4]; Table 1): 2.37 µM; level of expression of SATA5, pSTAT5, JAK2 and pJAK2 (in words) [5]: reduction in the level of expression; IC50 (PH (Ph+ ALL PD-LTC); Table 1): 0.13 µM"
COc1ccc(C(=O)N2CCN(c3cc(Nc4ccc(OC(F)(F)F)cc4)ncn3)CC2)c(OC)c1 [Compound 32],–,–,–,enhanced activity; also recorded: milder,enhanced activity; also recorded: good inhibitory effect,–
"Cc1cn(-c2cc(NC(=O)c3ccc(C)c(Nc4nccc(-c5cccnc5)n4)c3)cc(C(F)(F)F)c2)cn1 [Nilotinib, reference compound]",irresponsiveness,–,–,–,–,–
"O=C(Nc1ccc(OC(F)(F)Cl)cc1)c1cnc(N2CC[C@@H](O)C2)c(-c2cc[nH]n2)c1 [ABL001, Asciminib, reference compound]",irresponsiveness,–,–,–,–,–
